Results: US20120015906A1, “USES OF BORTEZOMIB IN PREDICTING SURVIVAL IN MULTIPLE MYELOMA PATIENTS” (priority 2009, published 2012)
Entries after “also recorded” stand apart in the source; their conditions may differ.

Tests used:
[1] = test system: proteasome genes; details: Burington et al., 2009; cited from earlier work
[2] = test system: proteasome genes; assay: Proteasome gene expression changes after short-term exposure (test-dosing) to bortezomib, dexamethasone, thalidomide, melphalan; type: in vivo, human; details: for proteasome gene expression change after short-term exposure: test-dosing in myeloma patients
Text: In earlier studies, pharmacogenomics was used to identify genes altered by short-term exposure of therapy-naïve cases to thalidomide and dexamethasone. Little to no overlap was found in the genes altered by these agents with those altered by bortezomib.

Row | Structure (SMILES) | hyperactivation of proteasome genes after short-term drug [1] | changes for some proteasome genes (e.g. PSMB3 and PSMD14) compared to the changes after bortezomib ([2]; FIG. 10, short-term exposure) | change of PSMB2 and PSMD14 compared to the changes after bortezomib ([2]; melphalan test-dosing, Total Therapy 4) | proteasome gene expression change after short-term exposure [2]
1 | Nc1cccc2c1CN(C1CCC(=O)NC1=O)C2=O (stereo not drawn) [lenalidomide] | not associated with hyperactivation of proteasome genes | – | – | –
2 | N[C@@H](Cc1ccc(N(CCCl)CCCl)cc1)C(=O)O [melphalan] | – | reversed | inversely changed | most proteasome genes did not change
3 | O=C1CCC(N2C(=O)c3ccccc3C2=O)C(=O)N1 (stereo not drawn) [thalidomide] | not associated with hyperactivation of proteasome genes | – | – | complete lack of activation; also recorded: did not change
